Source: patent publication EP0120270A2, “Furyloxazolylacetic acid derivative, processes for preparing same and pharmaceutical composition” (Tanabe Seiyaku Co., Ltd., priority 1983, dated 1984)

How the values were obtained:
[1] = system: male SD rats; assay: Hypolipidemic activity (serum cholesterol and serum triglyceride in rats fed diet containing test compound); format: in vivo; conditions: test compound 50 mg % in diet, ad libitum for one week, group of 5
Description: A test compound (50 mg %) was added to a commercial diet, and male SD rats (body weight: 120 - 140 g, a group of 5 rats) were fed with the diet ad libitum for one week. After the experimental period, blood was collected from the tail vein of the rats under ether anesthesia. Then, serum cholesterol and serum triglyceride were measured according to the methods of Zak (Amr. J. Clin, Pathol., Vol. 24, page 1307 (1954)) and Van Handel-Silversmit (J. Lab. & Clin. Med., Vol. 50, page 152 (1957)), respectively. Based on the results obtained above, the decrease (%) in serum cholesterol or triglyceride were calculated by the following formula: [formula]

[2] = system: platelet aggregation; assay: Platelet aggregation-inhibiting activity (collagen-induced aggregation in platelet-rich plasma); format: cell-based, rats; conditions: final concentration: 100 µg/ml, rat PRP, 37°C
Description: Blood was collected from the abdominal aorta of male SD rats (body weight: 250 - 300 g) which were anesthetized with ether. Nine volumes of said blood were mixed with one volume of an aqueous 3.8 % (w/v) trisodium citrate solution, and the mixture was centrifuged at 500 x g for 5 minutes to give platelet-rich plasma (hereinafter referred to as "PRP") as the supernatant solution. The bottom layer was further centrifuged at 1000 x g for 10 minutes to give platelet-poor plasma (hereinafter referred to as "PPP") as the supernatant solution. PRP was diluted with PPP so that the blood platelet count was 8 - 10 x 10 /mm . Then, a mixture of 200 µl of said diluted PRP and 25 µl of a test compound solution (final concentration: 100 µg/ml) was introduced into a glass cell of SIENCO aggregometer (Sienco Inc., Morrison, Colo. Model DP-247-D). After the mixture was stirred at 1100 rpm at 37°C for 2 minutes, 25 µl of a collagen solution (prepared by Holmsen's method described in Biochim. Biophys. Acta, Vol. 186, page 254(1969)) was added thereto, and the percentage inhibition of platelet aggregation was calculated in accordance with the following formula from the degree of the platelet aggregation which was estimated by Born's method (Nature, 194, page 927[…]). [formula]

| Compound | Decrease (%) in serum choles-terol [1] [%] | Decrease (%) in serum trigly-ceride [1] [%] | inhibition at 100 µg/mL [2] [%] |
| --- | --- | --- | --- |
| CC(C)(C(=O)O)c1nc(-c2ccc(Cl)cc2)oc1-c1ccco1 [2-[2-(4-chlorophenyl)-5-(2-furyl)-4-oxazolyl]-2-methylpropionic acid] | 16 | 54 | – |
| CC(C(=O)O)c1nc(-c2ccc(Cl)cc2)oc1-c1ccco1 (stereo not shown) [2-[2-(4-chlorophenyl)-5-(2-furyl)-4-oxazolyl]-propionic acid] | 14 | 34 | – |
| CCOC(=O)C(C)(C)Oc1ccc(Cl)cc1 [Clofibrate, 2-(4-chlorophenoxy)-2-methylpropanoic acid ethyl ester, reference compound] | 15 | 16 | < 10 |
| CCOC(=O)C(C)c1nc(-c2ccc(Cl)cc2)oc1-c1ccco1 (stereo not shown) [Ethyl 2-[2-(4-chlorophenyl)-5-(2-furyl)-4-oxazolyl]-propionate] | 15 | 22 | ≥ 10 |
| CCOC(=O)C(C)c1nc(-c2ccc(Cl)cc2)oc1-c1ccoc1 (stereo not shown) [Ethyl 2-[2-(4-chlorophenyl)-5-(3-furyl)-4-oxazolyl]-propionate] | 22 | 45 | ≥ 10 |
